Data taken from ChEMBL document CHEMBL1201862, “PubChem BioAssay data set” (2004).
Active and inactive are the calls of the source.

Key:
[1] = biological target: T1, Delta-type opioid receptor (Homo sapiens, UniProt P41143); assay: HTS Image-Based Screen for Antagonists of the DOR Receptor. [Related pubchem assays (depositor defined):AID1777, AID1785, AID1786, AID2133]; assay type: functional
Mu-type opioid receptor = Mu-type opioid receptor (Homo sapiens, UniProt P35372); assay: HTS Image-Based Screen for Agonists of the MOR Receptor. [Related pubchem assays (depositor defined):AID1777, AID1785, AID1786, AID2133]; assay type: functional;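 further: imaging of beta-arrestin GFP recruitment into spots after receptor activation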
[2] = biological target: T1, Delta-type opioid receptor; assay: HTS Image-Based Screen for Agonists of the DOR Receptor. [Related pubchem assays (depositor defined):AID1777, AID1786, AID2133]; assay type: functional
Mucolipin-3 = biological target: T2, Mucolipin-3 (Homo sapiens, UniProt Q8TDD5); assay: Dose response cell-based high-throughput screening assay for agonists of the transient receptor potential channel ML3 (TRPML3). [Related pubchem assays: 1526, 1424, 1448 ]; assay type: functional
T2 sequence (Q8TDD5 whole entry): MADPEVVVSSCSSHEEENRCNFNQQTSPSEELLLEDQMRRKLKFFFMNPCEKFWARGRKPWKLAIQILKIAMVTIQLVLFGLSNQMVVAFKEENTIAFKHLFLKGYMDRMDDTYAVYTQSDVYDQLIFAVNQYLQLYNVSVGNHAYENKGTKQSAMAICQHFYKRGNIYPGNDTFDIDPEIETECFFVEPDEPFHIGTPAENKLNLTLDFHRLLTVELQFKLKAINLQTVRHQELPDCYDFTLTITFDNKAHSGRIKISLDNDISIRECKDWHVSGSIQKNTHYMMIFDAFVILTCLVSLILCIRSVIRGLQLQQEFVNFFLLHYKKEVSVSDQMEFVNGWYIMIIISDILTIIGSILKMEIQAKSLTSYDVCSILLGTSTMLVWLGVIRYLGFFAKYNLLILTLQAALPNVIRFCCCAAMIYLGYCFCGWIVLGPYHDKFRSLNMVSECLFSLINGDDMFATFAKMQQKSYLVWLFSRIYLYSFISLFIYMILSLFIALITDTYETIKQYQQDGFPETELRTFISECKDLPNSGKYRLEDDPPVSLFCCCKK

[3] = biological target: T3, Kappa-type opioid receptor (Homo sapiens, UniProt P41145); assay type: functional
[4] = biological target: T3, Kappa-type opioid receptor; assay type: functional; remark: listed apart in the source
Ion channel NompC = Ion channel NompC (Danio rerio, UniProt Q7T1G6); assay: Fluorescence counterscreen assay for TRPML3 agonists: dose response cell-based high-throughput screening assay to identify agonists of the transient receptor potential channel N1 (TRPN1). [Related pubchem assays: 1526, 1424, 1448 ]; assay type: functional
[5] = reduction of Shn3 3'UTR-driven luciferase in osteoblasts – cell-based, Clone20 osteoblasts, firefly luciferase, cherry-picked, dose response (AID 624132); assay type: functional;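 further: firefly luciferase luminescence from reporter carrying the Shn3 3'UTR in osteoblasts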
[6] = loss of viability in HepG2 cells – cell-based, CellTiter-Glo, cherry-picked, cytotoxicity control for Shn3 inhibitor project, dose response (AID 624134); assay type: functional
[7] = non-specific 3'UTR reporter inhibition in Clone20-Shn3RL – cell-based, Renilla luciferase, cherry-picked, counter-screen for Shn3 inhibitor project, dose response (AID 624133); assay type: functional
Tumor necrosis factor = Tumor necrosis factor (Homo sapiens, UniProt P01375); assay: analog potency on TNFa NF-kB signaling – cell-based, revised, SAR follow-up (AID 2337); assay type: functional
[8] = biological target: Intestinal-type alkaline phosphatase (Mus musculus, UniProt P24822); assay: PubChem AID 488874; assay type: functional
[9] = biological target: Nucleotide-binding oligomerization domain-containing protein 1 (Homo sapiens, UniProt Q9Y239); assay: blockers of NOD1 pathway activity – revised, SAR follow-up (AID 2333); assay type: functional
[10] = biological target: T4, Intestinal-type alkaline phosphatase (Homo sapiens, UniProt P09923); assay: human intestinal alkaline phosphatase activators, dose response, biochemical, luminescence, uHTS hits (AID 463120); assay type: functional
[11] = biological target: Nucleotide-binding oligomerization domain-containing protein 2 (Homo sapiens, UniProt Q9HC29); assay: PubChem AID 2334; assay type: functional
[12] = biological target: T4, Intestinal-type alkaline phosphatase; assay: activation of human intestinal alkaline phosphatase – biochemical, luminescent, uHTS hits, set 2, dose response (AID 488817); assay type: functional;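 further: potency of activators that raise enzyme activity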
[13] = biological target: T5, Alkaline phosphatase, tissue-nonspecific isozyme (Homo sapiens, UniProt P05186); assay: activation of tissue-nonspecific alkaline phosphatase – biochemical, TNAP isozyme, human IAP uHTS hits, selectivity assay for human IAP activator project, dose response (AID 488886); assay type: functional;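 further: potency of compounds raising TNAP activity as a selectivity check on IAP activators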
T5 sequence (P05186 whole entry): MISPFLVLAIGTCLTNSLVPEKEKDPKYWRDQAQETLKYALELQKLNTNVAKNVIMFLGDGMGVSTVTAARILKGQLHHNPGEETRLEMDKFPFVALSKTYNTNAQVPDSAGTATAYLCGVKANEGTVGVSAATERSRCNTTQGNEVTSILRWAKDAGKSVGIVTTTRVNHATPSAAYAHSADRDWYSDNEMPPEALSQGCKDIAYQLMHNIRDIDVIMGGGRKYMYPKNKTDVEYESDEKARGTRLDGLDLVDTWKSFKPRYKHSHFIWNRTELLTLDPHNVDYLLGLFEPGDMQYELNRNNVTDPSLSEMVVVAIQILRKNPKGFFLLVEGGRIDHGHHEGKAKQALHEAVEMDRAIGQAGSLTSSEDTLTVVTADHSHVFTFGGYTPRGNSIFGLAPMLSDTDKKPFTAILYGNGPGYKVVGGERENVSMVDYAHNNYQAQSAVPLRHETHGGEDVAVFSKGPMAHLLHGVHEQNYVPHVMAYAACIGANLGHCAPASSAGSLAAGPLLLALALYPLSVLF

HEK293 = assay: cells; details: Homo sapiens;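 further: cells exposed to compound for 14 hours overnight before viability readout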
[14] = biological target: T6, Tyrosine-protein phosphatase non-receptor type 7 (Homo sapiens, UniProt P35236); assay type: functional
T6 sequence (P35236 whole entry): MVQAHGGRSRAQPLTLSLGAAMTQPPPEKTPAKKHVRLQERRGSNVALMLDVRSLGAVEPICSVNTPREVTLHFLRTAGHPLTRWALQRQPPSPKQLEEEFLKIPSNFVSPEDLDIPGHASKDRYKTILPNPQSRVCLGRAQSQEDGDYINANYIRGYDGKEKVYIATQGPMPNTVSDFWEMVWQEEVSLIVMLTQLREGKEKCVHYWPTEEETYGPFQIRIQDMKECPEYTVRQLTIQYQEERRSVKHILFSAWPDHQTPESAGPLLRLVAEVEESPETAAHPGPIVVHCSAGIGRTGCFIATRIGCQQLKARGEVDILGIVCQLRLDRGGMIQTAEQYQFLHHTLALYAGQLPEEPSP

[15] = Trypanosoma cruzi growth suppression in host cells – NIH3T3 host cells, beta-gal luminescence, confirmation (AID 2044); assay type: functional, cell-based;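 further: intracellular parasites grown in NIH/3T3 mouse fibroblasts as host cells; luminescent beta-galactosidase reporter signal from transgenic T. cruzi replicating inside host cells; inhibitors lower the luminescence signal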
[16] = NIH3T3 cell viability loss – ATP luminescence, mouse fibroblasts, counter-screen, dose response (AID 2010); assay type: functional, cell-based;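 further: cells exposed to compound for about 90 hours before reading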
[17] = biological target: T7, Tyrosine-protein phosphatase non-receptor type 22 (Homo sapiens, UniProt Q9Y2R2); assay type: functional
T7 sequence (Q9Y2R2 whole entry): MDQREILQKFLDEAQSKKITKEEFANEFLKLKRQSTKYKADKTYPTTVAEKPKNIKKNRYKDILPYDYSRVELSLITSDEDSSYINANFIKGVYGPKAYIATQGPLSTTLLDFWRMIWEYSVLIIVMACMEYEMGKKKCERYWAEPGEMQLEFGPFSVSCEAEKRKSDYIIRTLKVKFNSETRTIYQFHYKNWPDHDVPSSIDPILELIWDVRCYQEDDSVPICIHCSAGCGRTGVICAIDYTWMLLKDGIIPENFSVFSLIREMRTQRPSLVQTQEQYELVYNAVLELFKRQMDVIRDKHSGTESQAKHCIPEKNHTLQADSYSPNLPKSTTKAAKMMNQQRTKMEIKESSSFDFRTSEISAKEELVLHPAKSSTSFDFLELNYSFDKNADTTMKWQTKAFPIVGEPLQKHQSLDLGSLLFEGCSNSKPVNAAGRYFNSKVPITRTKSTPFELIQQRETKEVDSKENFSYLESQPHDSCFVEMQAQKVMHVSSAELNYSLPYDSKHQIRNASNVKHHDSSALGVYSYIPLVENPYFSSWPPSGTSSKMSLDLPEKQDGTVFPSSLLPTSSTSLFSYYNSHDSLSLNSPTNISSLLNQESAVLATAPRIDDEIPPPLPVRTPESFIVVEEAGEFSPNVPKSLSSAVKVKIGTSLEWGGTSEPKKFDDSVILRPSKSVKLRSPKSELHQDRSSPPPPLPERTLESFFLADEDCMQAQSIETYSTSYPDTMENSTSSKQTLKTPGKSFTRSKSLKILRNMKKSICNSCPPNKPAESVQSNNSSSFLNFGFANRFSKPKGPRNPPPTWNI

[18] = biological target: T7, Tyrosine-protein phosphatase non-receptor type 22; assay type: functional; remark: listed apart in the source
Galanin receptor type 3 = biological target: T8, Galanin receptor type 3 (Homo sapiens, UniProt O60755); assay: Fluorescence-based cell-based primary high throughput dose response assay to identify antagonists of the Galanin Receptor 3 (GalR3).; assay type: functional
T8 sequence (O60755 whole entry): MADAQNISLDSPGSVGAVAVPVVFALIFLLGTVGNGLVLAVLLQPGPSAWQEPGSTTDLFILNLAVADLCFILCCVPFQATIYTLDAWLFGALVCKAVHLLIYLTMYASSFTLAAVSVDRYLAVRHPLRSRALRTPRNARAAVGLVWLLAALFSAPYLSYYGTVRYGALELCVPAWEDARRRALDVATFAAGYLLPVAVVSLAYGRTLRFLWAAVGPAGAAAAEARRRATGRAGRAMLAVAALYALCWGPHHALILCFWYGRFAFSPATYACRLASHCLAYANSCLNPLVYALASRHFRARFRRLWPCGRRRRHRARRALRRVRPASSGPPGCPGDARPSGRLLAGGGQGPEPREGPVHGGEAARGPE

cells = assay type: functional, cell-based; details: HEK-CNG
[19] = biological target: Sphingosine 1-phosphate receptor 5 (Homo sapiens, UniProt Q9H228); assay: Late stage counterscreen assay for S1P4 antagonists: Fluorescence dose response cell-based screening assay for antagonists of the Sphingosine 1-Phosphate Receptor 5 (S1P5). [Related pubchem assays (depositor defined):AID1510, AID1524, AID1692, AID1853, AID2332, AID489009, AID489017]; assay type: functional
[20] = biological target: Sphingosine 1-phosphate receptor 3 (Homo sapiens, UniProt Q99500); assay: Late stage counterscreen assay for S1P4 antagonists: Fluorescence dose response cell-based screening assay for antagonists of the Sphingosine 1-Phosphate Receptor 3 (S1P3). [Related pubchem assays (depositor defined):AID1510, AID1524, AID1692, AID1853, AID2332, AID489009, AID489017]; assay type: functional
[21] = biological target: Sphingosine 1-phosphate receptor 1 (Homo sapiens, UniProt P21453); assay: Late stage counterscreen assay for S1P4 antagonists: Fluorescence dose response cell-based screening assay for antagonists of the Sphingosine 1-Phosphate Receptor 1 (S1P1). [Related pubchem assays (depositor defined):AID1510, AID1524, AID1692, AID1853, AID2332, AID489009, AID489017]; assay type: functional
[22] = biological target: Sphingosine 1-phosphate receptor 2 (Homo sapiens, UniProt O95136); assay: Late stage counterscreen assay for S1P4 antagonists: Fluorescence dose response cell-based screening assay for antagonists of the Sphingosine 1-Phosphate Receptor 2 (S1P2). [Related pubchem assays (depositor defined):AID1510, AID1524, AID1692, AID1853, AID2332, AID489009, AID489017]; assay type: functional
[23] = Late-stage results from the probe development effort to identify antagonists of the Sphingosine 1-Phosphate Receptor 4 (S1P4): luminescence-based cell-based dose response assay to determine cytotoxicity of antagonist compounds. [Related pubchem assays (depositor defined):AID1510, AID1524, AID1564, AID1692, AID1821, AID1853, AID2332, AID2346, AID2349, AID2350, AID2351, AID2354]; assay type: functional
SUMO E1/E2 = SUMO E1/E2 (Homo sapiens, UniProt P63279+Q9UBE0+Q9UBT2); assay: SAR analysis of SUMOylation using HTRF in an in-Vitro dose response assay. [Related pubchem assays (depositor defined):AID2006, AID2011, AID2018, AID2069, AID2658]; assay type: functional

T3 sequence (P41145 whole entry): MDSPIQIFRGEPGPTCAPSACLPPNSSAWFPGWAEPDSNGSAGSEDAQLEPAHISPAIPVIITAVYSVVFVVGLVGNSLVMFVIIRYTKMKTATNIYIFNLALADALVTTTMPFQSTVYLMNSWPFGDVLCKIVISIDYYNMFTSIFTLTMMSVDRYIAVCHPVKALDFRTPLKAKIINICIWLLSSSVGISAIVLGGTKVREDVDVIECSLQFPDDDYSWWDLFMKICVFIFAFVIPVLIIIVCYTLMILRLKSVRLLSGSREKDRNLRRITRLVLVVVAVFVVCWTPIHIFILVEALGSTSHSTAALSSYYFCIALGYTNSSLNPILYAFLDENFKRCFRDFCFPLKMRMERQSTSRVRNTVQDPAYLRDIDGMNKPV
T4 sequence (P09923 whole entry, the tested form may be a part): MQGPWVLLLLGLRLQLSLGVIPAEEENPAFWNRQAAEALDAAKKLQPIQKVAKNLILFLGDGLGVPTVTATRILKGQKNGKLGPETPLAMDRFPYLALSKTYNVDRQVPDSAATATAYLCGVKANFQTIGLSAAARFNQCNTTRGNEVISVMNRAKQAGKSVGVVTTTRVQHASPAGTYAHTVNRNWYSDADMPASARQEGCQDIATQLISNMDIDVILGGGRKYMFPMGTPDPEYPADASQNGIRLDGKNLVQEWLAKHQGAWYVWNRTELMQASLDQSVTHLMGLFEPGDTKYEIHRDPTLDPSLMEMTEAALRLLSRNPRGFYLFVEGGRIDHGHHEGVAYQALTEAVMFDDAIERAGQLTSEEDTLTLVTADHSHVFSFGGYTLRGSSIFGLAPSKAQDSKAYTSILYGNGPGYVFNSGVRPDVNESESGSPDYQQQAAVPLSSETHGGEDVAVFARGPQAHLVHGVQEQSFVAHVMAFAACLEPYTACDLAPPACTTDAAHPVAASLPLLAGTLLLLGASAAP
T1 sequence (P41143 whole entry): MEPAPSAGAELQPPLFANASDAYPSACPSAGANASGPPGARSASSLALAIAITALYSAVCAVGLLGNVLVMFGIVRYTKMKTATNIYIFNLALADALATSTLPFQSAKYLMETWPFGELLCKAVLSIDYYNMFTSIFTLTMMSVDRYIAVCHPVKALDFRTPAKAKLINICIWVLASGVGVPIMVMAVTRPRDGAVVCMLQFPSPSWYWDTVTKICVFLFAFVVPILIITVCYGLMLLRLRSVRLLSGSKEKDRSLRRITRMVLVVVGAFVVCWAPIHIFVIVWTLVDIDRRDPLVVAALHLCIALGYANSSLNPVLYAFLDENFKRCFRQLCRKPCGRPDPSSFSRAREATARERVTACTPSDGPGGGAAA
Sequence of Tumor necrosis factor (P01375 whole entry): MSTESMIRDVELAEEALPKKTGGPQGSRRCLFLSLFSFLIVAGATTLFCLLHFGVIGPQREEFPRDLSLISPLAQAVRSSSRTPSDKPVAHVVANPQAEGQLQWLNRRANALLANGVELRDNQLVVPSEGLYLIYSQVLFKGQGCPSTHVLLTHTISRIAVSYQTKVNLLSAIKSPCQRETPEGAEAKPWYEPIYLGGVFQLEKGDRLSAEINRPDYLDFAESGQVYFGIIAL
Sequence of Sphingosine 1-phosphate receptor 2 (O95136 whole entry): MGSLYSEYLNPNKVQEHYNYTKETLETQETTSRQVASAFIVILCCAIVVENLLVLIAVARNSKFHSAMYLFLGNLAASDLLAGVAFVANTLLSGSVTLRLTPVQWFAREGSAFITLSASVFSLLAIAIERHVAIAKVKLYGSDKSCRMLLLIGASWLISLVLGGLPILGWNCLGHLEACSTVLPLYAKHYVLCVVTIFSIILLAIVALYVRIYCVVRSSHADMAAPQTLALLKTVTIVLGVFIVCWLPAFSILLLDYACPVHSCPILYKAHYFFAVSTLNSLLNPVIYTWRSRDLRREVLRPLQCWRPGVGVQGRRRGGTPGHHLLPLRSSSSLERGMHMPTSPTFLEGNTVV
Sequence of Sphingosine 1-phosphate receptor 3 (Q99500 whole entry): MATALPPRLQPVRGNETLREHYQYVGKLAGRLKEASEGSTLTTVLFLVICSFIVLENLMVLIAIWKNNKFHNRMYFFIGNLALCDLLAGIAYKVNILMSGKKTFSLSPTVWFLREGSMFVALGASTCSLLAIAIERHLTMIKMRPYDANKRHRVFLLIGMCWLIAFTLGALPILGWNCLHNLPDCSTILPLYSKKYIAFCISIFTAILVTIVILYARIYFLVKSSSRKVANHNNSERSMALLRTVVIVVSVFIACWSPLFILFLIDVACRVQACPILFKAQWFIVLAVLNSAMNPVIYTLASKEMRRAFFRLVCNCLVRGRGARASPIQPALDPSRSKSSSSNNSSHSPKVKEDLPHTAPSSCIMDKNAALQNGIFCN
Sequence of Mu-type opioid receptor (P35372 whole entry): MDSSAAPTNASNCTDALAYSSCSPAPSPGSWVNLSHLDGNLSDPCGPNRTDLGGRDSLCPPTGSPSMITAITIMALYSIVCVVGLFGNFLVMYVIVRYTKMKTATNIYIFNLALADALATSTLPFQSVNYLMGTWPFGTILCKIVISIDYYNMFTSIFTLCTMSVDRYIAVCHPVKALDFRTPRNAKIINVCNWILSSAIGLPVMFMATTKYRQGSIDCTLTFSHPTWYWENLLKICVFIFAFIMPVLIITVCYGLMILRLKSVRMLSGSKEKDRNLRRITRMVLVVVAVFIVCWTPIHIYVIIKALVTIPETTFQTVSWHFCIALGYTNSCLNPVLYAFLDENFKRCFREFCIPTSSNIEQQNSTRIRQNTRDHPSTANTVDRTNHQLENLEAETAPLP
Sequence of Ion channel NompC (Q7T1G6 whole entry): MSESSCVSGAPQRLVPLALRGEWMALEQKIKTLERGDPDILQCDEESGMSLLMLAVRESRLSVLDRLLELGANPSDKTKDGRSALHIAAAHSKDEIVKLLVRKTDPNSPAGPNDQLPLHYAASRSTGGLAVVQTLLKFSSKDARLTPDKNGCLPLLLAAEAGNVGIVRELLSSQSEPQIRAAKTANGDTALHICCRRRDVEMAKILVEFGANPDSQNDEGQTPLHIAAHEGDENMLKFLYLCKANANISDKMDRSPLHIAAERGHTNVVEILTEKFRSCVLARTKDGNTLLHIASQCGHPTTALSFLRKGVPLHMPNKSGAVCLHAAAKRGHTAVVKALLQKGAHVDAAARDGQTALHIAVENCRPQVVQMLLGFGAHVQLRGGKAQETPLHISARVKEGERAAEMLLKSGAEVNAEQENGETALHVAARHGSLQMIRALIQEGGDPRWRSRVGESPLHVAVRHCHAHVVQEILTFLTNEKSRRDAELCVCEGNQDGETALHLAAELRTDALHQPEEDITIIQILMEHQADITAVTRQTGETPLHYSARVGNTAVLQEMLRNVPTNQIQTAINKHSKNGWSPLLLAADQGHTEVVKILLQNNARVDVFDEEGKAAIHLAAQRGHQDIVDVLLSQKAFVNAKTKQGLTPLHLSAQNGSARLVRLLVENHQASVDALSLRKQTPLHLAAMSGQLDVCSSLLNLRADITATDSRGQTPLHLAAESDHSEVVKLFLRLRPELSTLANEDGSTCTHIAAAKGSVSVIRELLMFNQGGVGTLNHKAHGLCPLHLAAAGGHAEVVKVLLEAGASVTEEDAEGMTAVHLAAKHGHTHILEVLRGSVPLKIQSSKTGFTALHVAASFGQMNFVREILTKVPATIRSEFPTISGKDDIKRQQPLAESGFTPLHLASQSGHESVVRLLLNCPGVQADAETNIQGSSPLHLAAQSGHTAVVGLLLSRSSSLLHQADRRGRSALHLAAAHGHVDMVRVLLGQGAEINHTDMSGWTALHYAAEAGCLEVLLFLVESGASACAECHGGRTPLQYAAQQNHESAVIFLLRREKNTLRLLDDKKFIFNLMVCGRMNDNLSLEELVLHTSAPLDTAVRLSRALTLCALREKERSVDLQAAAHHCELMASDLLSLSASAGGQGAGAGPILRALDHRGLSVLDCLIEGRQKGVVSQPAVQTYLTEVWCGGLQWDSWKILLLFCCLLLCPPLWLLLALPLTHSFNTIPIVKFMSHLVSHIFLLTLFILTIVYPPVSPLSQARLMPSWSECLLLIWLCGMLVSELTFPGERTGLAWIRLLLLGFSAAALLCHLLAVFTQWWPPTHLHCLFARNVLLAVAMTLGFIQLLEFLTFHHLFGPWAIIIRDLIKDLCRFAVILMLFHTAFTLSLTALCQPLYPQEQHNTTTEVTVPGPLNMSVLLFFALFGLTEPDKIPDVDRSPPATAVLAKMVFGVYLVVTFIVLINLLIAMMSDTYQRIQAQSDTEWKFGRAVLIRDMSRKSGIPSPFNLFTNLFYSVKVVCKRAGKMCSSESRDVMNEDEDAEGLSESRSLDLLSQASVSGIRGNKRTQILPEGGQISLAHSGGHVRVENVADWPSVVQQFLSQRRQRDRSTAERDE
Sequence of Sphingosine 1-phosphate receptor 1 (P21453 whole entry): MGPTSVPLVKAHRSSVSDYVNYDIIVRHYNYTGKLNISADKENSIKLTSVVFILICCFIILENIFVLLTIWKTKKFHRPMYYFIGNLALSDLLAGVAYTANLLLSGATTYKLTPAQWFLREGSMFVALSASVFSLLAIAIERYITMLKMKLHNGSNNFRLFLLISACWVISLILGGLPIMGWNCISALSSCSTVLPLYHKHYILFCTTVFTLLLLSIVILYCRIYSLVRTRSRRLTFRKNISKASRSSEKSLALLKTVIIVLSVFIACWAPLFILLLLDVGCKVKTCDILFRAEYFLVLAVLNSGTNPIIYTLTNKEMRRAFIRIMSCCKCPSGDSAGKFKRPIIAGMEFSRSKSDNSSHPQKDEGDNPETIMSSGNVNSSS

COc1ccc(CCN2C(=O)CS/C2=N\c2ccc(C(C)C)cc2)cc1OC
IC50 [1]: > 32 µM (inactive)
EC50 (Mu-type opioid receptor): > 32 µM (inactive)
EC50 [2]: > 32 µM (inactive)
EC50 (Mucolipin-3): > 29.9 µM (not active)
EC50 [3]: 5.88 µM
EC50 [4]: 6.83 µM
EC50 (Ion channel NompC): > 29.9 µM (not active)
AC50 [5]: 4.49 µM (active)
AC50 [6]: 5.37 µM (active)
AC50 [7]: 7.07 µM (active)

Cc1cc(Br)ccc1SCC(=O)OC/C(O)=C(\C#N)c1nc2ccccc2[nH]1
IC50 (Tumor necrosis factor): > 20 µM (inactive)
IC50 [8]: > 100 µM (inactive)
IC50 [9]: > 20 µM (inactive)
EC50 [10]: 13.4 µM (active)
IC50 [11]: > 20 µM (inactive)
EC50 [12]: 27.5 µM (active)
EC50 [13]: 24.1 µM (active)
IC50 (HEK293): > 20 µM (inactive)

COC(=O)C1CCN(Cc2ccc(OCCCN3CCN(c4ccc([N+](=O)[O-])cc4)CC3)cc2)CC1
IC50 [14]: > 79.4 µM (inactive)
EC50 [15]: 0.257 µM (active)
EC50 [16]: > 30 µM (not active)
IC50 [17]: > 79.4 µM (inactive)
IC50 [18]: > 79.4 µM (inactive)
IC50 (Galanin receptor type 3): 1.33 µM (active)
EC50 (cells): > 29.9 µM (inactive)

CCc1cccc(CC)c1NC(=O)c1ccc(-c2cc(Cl)ccc2Cl)o1
IC50 [19]: > 25 µM (inactive)
IC50 [20]: > 25 µM (inactive)
IC50 [21]: > 25 µM (inactive)
IC50 [22]: > 25 µM (inactive)
CC50 [23]: > 20 µM (inactive)

C/C(=N\OCc1nc2ccccc2c(=O)n1/N=C/c1ccc(Cl)cc1)c1ccccc1
IC50 (SUMO E1/E2): > 100 µM (inactive)
